Several values for one entry are separate records, joined by “and”; a condition that tells them apart may be missing. Identical values can stand only once.
Key:
[1] = Quantum yield of singlet oxygen production, comparative method with DPBF scavenger; format: physicochemical; conditions: in DMF, ZnPc as reference
Method: Eight μL of the 100 μM stock solution of the dye in DMF (or DMF + water or water; see above) was added. A xenon lamp (100 W, ozone free XE DC short arc lamp, New port) was used to irradiate the sample while stirring. The incident light was filtered through a water filter (6 cm) and cut off filter OG530 eliminating heat and light under 523 nm, respectively. […] The decrease of DPBF in solution with irradiation time was monitored at 415 nm. The values of ΦΔ of the dyes were calculated by the following equation: φΔS=φΔ[…] is the slope of the plot of the dependence of ln([…] 0 and A t being the absorbances of the DPBF at 415 nm before irradiation and after irradiation time t, respectively. I aT is the total amount of light absorbed by the dye sample. Superscripts R and S indicate the reference and sample, respectively. I aT is calculated as a sum of intensities of the absorbed light I a at wavelengths from 523 to 850 nm (step 0.5 nm). Light under 523 nm is completely filtered by an OG530 filter, and light above 850 nm is not absorbed by the studied dye sample. I a at a given wavelength is calculated using Beer-Lambert'[…]) where I 0 is transmittance of the filter at the given wavelength and A is the absorbance of the dye at this wavelength. All experiments were performed three times, and the data presented is the mean value of the three obtained results with estimated error ± 10%.

[2] = Absorption and fluorescence emission spectra in DMF; format: physicochemical; conditions: in DMF
Method: An absorption spectrum of 2.475 mL of solvent (water, DMF, or PBS) was taken (i.e., absorption spectrum of baseline); then, 25 μL of stock solution was added to reach the final concentration of 1 μM in the cuvette, and the absorption and emission spectra were taken. Baseline of the solvent was subtracted from the obtained absorption spectrum to get the final absorption spectrum of the sample.

[3] = tested on: SK-MEL-28 (human skin melanoma); experiment: Photodynamic activity (phototoxicity, neutral red uptake) on SK-MEL-28; format: cell-based; conditions: 12 h incubation, Xe-lamp 15 min, λ > 570 nm, 11.2 J/cm^2, mean ± SD, t.w. = this work
Method: (§1) Detailed in vitro studies involving subcellular localization and determination of the EC50 in three different cell lines (human cervical carcinoma–HeLa, human breast adenocarcinoma–MCF-7, and human skin melanoma–SK-MEL-28) were performed. A broadband light source (ozone-free 450 W Xe-lamp, Newport) equipped with the long-pass filter Schott OG570 was used (12.4 mW/cm^2, 15 min, 11.2 J/cm^2).
(§2) For the cytotoxicity experiments (phototoxicity), cells were seeded at 100 μL per well into 96-well plates (TPP, Switzerland) at a density of 7.5 × 10^3 (HeLa) or 1.0 × 10^4 (MCF-7 and SK-MEL-28) cells per well. Cells were left to grow for 24 h (until they reached confluency) in a controlled environment of a CO2 incubator (37 °C, 5% CO2 atmosphere, constant high humidity). Subsequently, studied compounds were added in a wide concentration range and incubated with the cells for 12 h. Cells were washed; fresh cell culture medium was added, and the cells were irradiated using a 450 W Xe lamp (Newport, USA). The lamp was equipped with a long pass filter (Newport OG570) and an 8 cm water filter (λ > 570 nm, 12.4 mW/cm^2, 15 min, 11.2 J/cm^2). Cellular viability was assessed after an additional 24 h by the neutral red (NR; Sigma, Merck, USA) uptake assay. At least three independent experiments, each in triplicate, were performed. The soluble NR was measured at λ = 540 nm using a Tecan Infinite 200 M plate reader (Tecan, Austria). The viability of each experimental group was expressed as the percentage of the untreated cells (100% viability) after subtraction of the signal from cells treated with a lethal dose of hydrogen peroxide (0% viability). […] EC50 values were calculated, and graphs were created by using GraphPad Prism 10.3.1 (Graph Pad software, USA).

[4] = tested on: MCF-7 (human breast adenocarcinoma); experiment: Photodynamic activity (phototoxicity, neutral red uptake) on MCF-7; format: cell-based; conditions: 12 h incubation, Xe-lamp 15 min, λ > 570 nm, 11.2 J/cm^2, mean ± SD, t.w. = this work
Method: as §1, §2

[5] = Log P, partition between n-octanol and PBS; format: physicochemical; conditions: partition coefficient between 1-octanol and PBS
Method: 400 μL portion of n-octanol and 400 μL of PBS buffer were mixed in a plastic Eppendorf vial. Then, 20 μL of the 100 μM stock solution of the sample (see above) was added to this mixture, vortexed for 5 min at rt, and then centrifuged for 10 min (10 000 rpm, rt). 50 μL of each of these layers was taken into 2.5 mL of DMF in a quartz cuvette, and their emission spectra (excitation wavelengths in Table ) were recorded. The log P value was then computed using the area under the curve of the emission spectra of n-octanol (F oct) and PBS buffer (F PBS) layers as follows: logP=log(Foct/FPBS) Triplicate measurements were performed, and the data reported are the mean of the obtained results.

[6] = tested on: HeLa (human cervical carcinoma); experiment: Photodynamic activity (phototoxicity, neutral red uptake) on HeLa; format: cell-based; conditions: 12 h incubation, Xe-lamp 15 min, λ > 570 nm, 11.2 J/cm^2, mean ± SD, t.w. = this work
Method: as §1, §2

[7] = biological target: bovine serum albumin (BSA) (Bos taurus, UniProt P02769); experiment: Interaction with bovine serum albumin (absorption and emission spectra in PBS); format: binding; conditions: 1 μM Pc in PBS, BSA 17.5, 35 and 100 μM
[8] = Fluorescence quantum yield, comparative method; format: physicochemical; conditions: in DMF; ZnPc as reference
Method: The fluorescence quantum yields (ΦF) were determined by a comparative method with ZnPc as the reference (ΦF = 0.32 in THF). The ΦF values were calculated using the following formula: ϕFS=ϕFR(F^S/F^R)(1−10^−A^R/1−10^−A^S)(η^S/η^R)^2 where F is the integrated area under the emission spectrum and A is the absorbance at the excitation wavelength. Superscripts R and S indicate the reference and sample, respectively. η stands for the refractive index of the solvent. Absorption in the Q-band was kept below 0.05 to eliminate the inner filter effect. Excitation wavelengths were the same as those used for emission spectra (see above). The emission wavelengths were set to their emission maxima to avoid exceeding the detector limit with stimated error ± 15%.

[9] = Fluorescence lifetime in DMF; format: physicochemical
Text: 1 Photophysical Data of Investigated Derivatives in DMF ^a | column: τF1/ns; τF2/ns

bovine serum albumin (BSA), sequence (P02769 25-607): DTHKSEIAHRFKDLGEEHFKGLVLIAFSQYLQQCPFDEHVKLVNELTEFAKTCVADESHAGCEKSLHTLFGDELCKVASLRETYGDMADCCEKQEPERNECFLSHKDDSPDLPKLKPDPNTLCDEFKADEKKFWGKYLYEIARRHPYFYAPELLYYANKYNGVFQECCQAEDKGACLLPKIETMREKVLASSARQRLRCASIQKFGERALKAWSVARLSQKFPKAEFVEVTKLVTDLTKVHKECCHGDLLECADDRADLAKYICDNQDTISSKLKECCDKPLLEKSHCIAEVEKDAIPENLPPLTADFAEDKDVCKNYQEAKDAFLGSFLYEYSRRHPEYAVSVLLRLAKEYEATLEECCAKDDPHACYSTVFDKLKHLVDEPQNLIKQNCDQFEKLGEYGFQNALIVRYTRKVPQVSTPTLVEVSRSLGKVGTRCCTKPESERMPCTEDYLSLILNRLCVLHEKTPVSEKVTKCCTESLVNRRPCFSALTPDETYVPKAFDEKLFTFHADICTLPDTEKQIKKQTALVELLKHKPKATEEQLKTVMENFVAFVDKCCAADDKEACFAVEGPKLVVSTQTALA

O=S(=O)([O-])c1cc(S(=O)(=O)[O-])c2cc(Oc3cccc4c3C3=NC4=Nc4c5c(Oc6ccc7cc(S(=O)(=O)[O-])cc(S(=O)(=O)[O-])c7c6)cccc5c5[n]4[Zn][n]4c(c6cccc(Oc7ccc8cc(S(=O)(=O)[O-])cc(S(=O)(=O)[O-])c8c7)c6c4=NC4=NC(=N5)c5c(Oc6ccc7cc(S(=O)(=O)[O-])cc(S(=O)(=O)[O-])c7c6)cccc54)=N3)ccc2c1.[Na+].[Na+].[Na+].[Na+].[Na+].[Na+].[Na+].[Na+] [A7Zn]
ΦΔ, quantum yield of singlet oxygen production [1]: 0.55 | ε, extinction coefficient [2]: 109 950 M^–1cm^–1 | λA, absorption maximum in the Q-band [2]: 696 nm | λF, fluorescence emission maximum [2]: 707 nm | EC50 [3]: 2120 ± 560 nM | EC50 [4]: 5100 ± 350 nM | Log P [5]: –2.92 | EC50 [6]: 1300 ± 400 nM | Interaction with BSA: disaggregation/monomerization and changes in absorption and fluorescence emission spectra [7]: complete | ΦF, fluorescence quantum yield [8]: 0.23

O=S(=O)([O-])c1ccc2c(c1)-c1nc-2nc2[nH]c(nc3nc(nc4[nH]c(n1)c1ccccc41)-c1ccc(S(=O)(=O)[O-])cc1-3)c1ccc(S(=O)(=O)[O-])cc21.[Na+].[Na+].[Na+] [A9H]
ΦΔ, quantum yield of singlet oxygen production [1]: 0.19 | ε, extinction coefficient [2]: 104 650 M^–1cm^–1 | λF, fluorescence emission maximum [2]: 703 nm | EC50 ([3]; Homo sapiens, SK-MEL-28, light or radiation study): 300 ± 77 nM | EC50 ([4]; Homo sapiens, MCF7, light or radiation study): 347 ± 125 nM | τF1, fluorescence lifetime (relative amplitude in brackets) [9]: 1.97 (18%) ns | τF2, fluorescence lifetime (relative amplitude in brackets) [9]: 3.87 (82%) ns | logP ([5]; n-octanol/PBS buffer): -1.35 | EC50 ([6]; Homo sapiens, HeLa, light or radiation study): 85 ± 7 nM | Interaction with BSA: disaggregation/monomerization and changes in absorption and fluorescence emission spectra [7]: partial | ΦF, fluorescence quantum yield [8]: 0.22

C[n+]1cccc(Oc2ccc3c(c2)C2=NC3=Nc3c4cc(Oc5ccc[n+](C)c5)ccc4c4[n]3[Zn][n]3c(c5ccc(Oc6ccc[n+](C)c6)cc5c3=NC3=NC(=N4)c4cc(Oc5ccc[n+](C)c5)ccc43)=N2)c1.[I-].[I-].[I-].[I-] [C5Zn-I]
ΦΔ, quantum yield of singlet oxygen production [1]: 0.49 | ε, extinction coefficient [2]: 130 860 M^–1cm^–1 | λA, absorption maximum in the Q-band [2]: 674 nm | λF, fluorescence emission maximum [2]: 682 nm | EC50 [3]: 110 ± 10 nM | EC50 [4]: 60 ± 10 nM | τF1, fluorescence lifetime (relative amplitude in brackets) [9]: 2.38 (97%) ns | τF2, fluorescence lifetime (relative amplitude in brackets) [9]: 6.53 (3%) ns | Log P [5]: –2.19 | EC50 [6]: 62 ± 13 nM | ΦF, fluorescence quantum yield [8]: 0.25

C[n+]1cccc(Oc2ccc3c(c2)C2=NC3=Nc3c4cc(Oc5ccc[n+](C)c5)ccc4c4[n]3[Zn][n]3c(c5ccc(Oc6ccc[n+](C)c6)cc5c3=NC3=NC(=N4)c4cc(Oc5ccc[n+](C)c5)ccc43)=N2)c1.F[P-](F)(F)(F)(F)F.F[P-](F)(F)(F)(F)F.F[P-](F)(F)(F)(F)F.F[P-](F)(F)(F)(F)F [C5Zn-PF 6]
ΦΔ, quantum yield of singlet oxygen production [1]: 0.45 | ε, extinction coefficient [2]: 86 800 M^–1cm^–1 | λA, absorption maximum in the Q-band [2]: 674 nm | λF, fluorescence emission maximum [2]: 682 nm | EC50 [3]: 190 ± 40 nM | EC50 [4]: 100 ± 20 nM | τF1, fluorescence lifetime (relative amplitude in brackets) [9]: 2.32 (97%) ns | τF2, fluorescence lifetime (relative amplitude in brackets) [9]: 6.31 (3%) ns | Log P [5]: –2.37 | EC50 [6]: 52 ± 26 nM | ΦF, fluorescence quantum yield [8]: 0.28

C[n+]1cccc(Oc2ccc3c(c2)C2=NC3=Nc3c4cc(Oc5ccc[n+](C)c5)ccc4c4[n]3[Zn][n]3c(c5ccc(Oc6ccc[n+](C)c6)cc5c3=NC3=NC(=N4)c4cc(Oc5ccc[n+](C)c5)ccc43)=N2)c1.O=S(=O)(O)O.O=S(=O)(O)O.O=S(=O)([O-])[O-].O=S(=O)([O-])[O-] [C5Zn-SO 4]
ΦΔ, quantum yield of singlet oxygen production [1]: 0.28 | ε, extinction coefficient [2]: 82 140 M^–1cm^–1 | λA, absorption maximum in the Q-band [2]: 674 nm | λF, fluorescence emission maximum [2]: 682 nm | EC50 [3]: 150 ± 50 nM | EC50 [4]: 80 ± 30 nM | τF1, fluorescence lifetime (relative amplitude in brackets) [9]: 2.47 (94%) ns | τF2, fluorescence lifetime (relative amplitude in brackets) [9]: 4.93 (6%) ns | Log P [5]: –3.57 | EC50 [6]: 53 ± 9 nM | ΦF, fluorescence quantum yield [8]: 0.077 and 0.08

COCCOCCOCCOCCOc1ccc(OCCOCCOCCOCCOC)c2c1C1=NC2=Nc2c3ccccc3c3[n]2[Zn][n]2c(c4ccccc4c2=N1)=NC1=NC(=N3)c2ccccc21 [N1Zn]
ΦΔ, quantum yield of singlet oxygen production [1]: 0.67 | ε, extinction coefficient [2]: 82 550 M^–1cm^–1 | λA, absorption maximum in the Q-band [2]: 689 nm | λF, fluorescence emission maximum [2]: 702 nm | EC50 [3]: 16 ± 3 nM | EC50 [4]: 6 ± 1 nM | τF1, fluorescence lifetime (relative amplitude in brackets) [9]: 2.41 ns | EC50 [6]: 17 ± 5 nM | Interaction with BSA: disaggregation/monomerization and changes in absorption and fluorescence emission spectra [7]: monomerization was apparent even from the absorption spectra | ΦF, fluorescence quantum yield [8]: 0.24

OCc1cc(CO)cc(OCCCCSC2=C(SCCCCOc3cc(CO)cc(CO)c3)C3=Nc4c5ccccc5c5[n]4[Mg][n]4c(c6ccccc6c4=NC4=NC(=N5)c5ccccc54)=NC2=N3)c1 [N2Mg]
ΦΔ, quantum yield of singlet oxygen production [1]: 0.17 | ε, extinction coefficient [2]: 15 950 M^–1cm^–1 | λA, absorption maximum in the Q-band [2]: 684 nm | λF, fluorescence emission maximum [2]: 687 nm | EC50 [3]: 119 ± 14 nM | EC50 [4]: 190 ± 40 nM | τF1, fluorescence lifetime (relative amplitude in brackets) [9]: 1.29 (25%) ns | τF2, fluorescence lifetime (relative amplitude in brackets) [9]: 3.39 (75%) ns | EC50 [6]: 107 ± 1 nM | Interaction with BSA: disaggregation/monomerization and changes in absorption and fluorescence emission spectra [7]: fluorescence was slightly enhanced | ΦF, fluorescence quantum yield [8]: 0.16

Reference: paper PMC12951568, “Identifying Structural Factors Governing the Photodynamic Activity of Phthalocyanines” (Journal of Medicinal Chemistry, 2026)
